“And” between values parts separate entries of the source, which are not always exact repeats. Identical values can stand only once.
Details: acidic group
`NCc1ccccc1S(N)(=O)=O` showed a pKa of 10.1. In the case of `O=C1OCC(O)=C1O`, the pKa is reported as 4.4. `O=C(Oc1ccc(Cl)cc1)C1c2ccccc2-c2ccccc21` showed a pKa of 10.3. With `CC1CCCC(C(=O)O)c2nnnn21` (configuration not stated) the pKa was 3.3. Work on `Nc1ccc([N+](=O)[O-])c(B(O)O)c1` yielded a pKa of 10. `COc1cccc2c1-c1c(O)cccc1-2` showed a pKa of 9.15. With `COc1cccc(OC)c1-c1nc2ncccc2[nH]1` the pKa was 11.3. `Cc1cc(/N=N/c2ccc(S(N)(=O)=O)cc2)cc(C(=O)[O-])c1O` gave a pKa of 10.2. For `O=CC(=O)O`, the pKa was 1.26. `Oc1ccc2ncsc2c1` gave a pKa of 9.21. In the case of `CC[NH2+]CCC(=O)O`, the pKa is reported as 3.61. `C[NH2+]CC(=O)c1ccc(O)cc1` gave a pKa of 7.7. Compound `Cc1cccc(OCC(=O)O)c1` has a pKa of 3.18. Work on `C[NH+](C)CC[SeH]` yielded a pKa of 4.74. With `NC(=O)C(CCC(=O)O)c1ccccc1` (configuration not stated) the pKa was 4.64. With `O=C1Oc2ccccc2C(=O)C1Cc1c([O-])c2ccccc2oc1=O` (configuration not stated) the pKa was 8.3. Work on `Cc1ccc(O)cc1C(=O)O` yielded a pKa of 3.92. Work on `O=c1cc(-c2ccccc2O)oc2ccccc12` yielded a pKa of 8.85. `O=[Se](O)c1cccc(-c2ccccc2)c1` gave a pKa of 4.87. For `S=C(Nc1ccc(Br)cc1)c1cccc(Br)c1`, the pKa was 9.96. `C[NH+](C)Cc1cc([N+](=O)[O-])ccc1O` gave a pKa of 5.75. `N#Cc1ccc(CC(C#N)C#N)cc1` showed a pKa of 11. In the case of `CC(C)=NNS(C)(=O)=O`, the pKa is reported as 8.5. With `Oc1ccc(F)cc1` the pKa was 9.88. Compound `O=C1COC(=O)C1I` (configuration not stated) has a pKa of 2.31. `O=C1C=CC(=O)c2c(O)cccc21` showed a pKa of 8.7. `CN(C)S(=O)(=O)c1ccc(NS(=O)(=O)c2ccc(N)cc2)cc1` showed a pKa of 6.23. `Cc1cnc2c(O)cccc2c1C` gave a pKa of 10.1. Work on `Oc1ccccc1-c1ccccc1O` yielded a pKa of 7.5. Work on `Nc1ccccc1B(O)O` yielded a pKa of 9.23. Work on `O=C(O)c1cccc(F)c1` yielded a pKa of 3.9. `O=C(O)[C@@H]1CCCC[C@@H]1O` gave a pKa of 4.8. With `Oc1cc2cccnc2c2cccnc12` the pKa was 8.5. Work on `O=C1CCCC2CCCC(=O)C12` (configuration not stated) yielded a pKa of 11.1. `Oc1ccc(O)cc1` showed a pKa of 9.93. With `Cc1ccc([N+](=O)[O-])cc1C(=O)O` the pKa was 3.17. Compound `Cn1ncc2c(=O)[nH]cnc21` has a pKa of 9.26. Compound `O=C(O)/C=C/c1ccc(O)cc1` has a pKa of 4.64. `CC(=N\O)/C(CN(C)C)=N\[O-]` showed a pKa of 12.5. With `Cc1c(Cc2c(C)n(C)[n+](-c3ccccc3)c2O)c(=O)n(-c2ccccc2)n1C` the pKa was 1.51. Work on `O=C(O)c1cc[n+](O)cc1` yielded a pKa of -0.48. Compound `CCCCOC(=S)NC(C)=O` has a pKa of 9.25. `O=C1C(O)=C(c2ccccc2)C(=O)c2ccccc21` gave a pKa of 4.35. For `O=C(c1ccccc1)c1ccc(O)cc1`, the pKa was 8.01. In the case of `COc1ccc(NC(=S)c2ccccc2)cc1`, the pKa is reported as 11.4. `O=[N+]([O-])c1ccc(S(=O)(=O)O)cc1` gave a pKa of -7.15. For `COc1c(O)cccc1CN`, the pKa was 10.5. `O=C(O)C1CCCOC1` (configuration not stated) gave a pKa of 4.25. Compound `Brc1ccc([P+](c2ccccc2)(c2ccccc2)C2c3ccccc3-c3ccccc32)cc1` has a pKa of 8.67. With `CC#C/C=C/C(=O)O` the pKa was 4.2. Work on `O=S(=O)([O-])c1cc(O)cc2[nH]ncc12` yielded a pKa of 8.85. Work on `NCCc1ccc(O)c(O)c1` yielded a pKa of 10.6. Work on `Cn1nc(/N=N/O)nc1N` yielded a pKa of 5.36. With `O=C(O)c1ccc2sc(Cn3cc[nH+]c3)cc2c1` the pKa was 3.9.

Same assay, conditions: basic group
`Cn1ccnc1-c1ccccn1` showed a pKa of 5.7. `COc1ccccc1C(=O)N[C@@H]1C[C@H]2CC[C@@H](C1)N2Cc1ccccc1` showed a pKa of 8.88. Work on `c1ccc(-c2ccnc3c2ccc2c(-c4ccccc4)ccnc23)cc1` yielded a pKa of 4.84. With `O=P([O-])([O-])C(NCc1ccccn1)c1ccccc1[O-]` (configuration not stated) the pKa was 12.1. In the case of `Cc1cc(-c2ccccc2)nn2cc(CN3CCOCC3)nc12`, the pKa is reported as 6.3. With `CN1CCOCC1` the pKa was 7.66. Work on `CN(C)CCOCC[NH+](C)C` yielded a pKa of 8.21. `NCc1ccccc1S(N)(=O)=O` gave a pKa of 8.53. `C=C(C)C(=O)OC(C)CN(CC)CC` (configuration not stated) showed a pKa of 8.65. `CC(=O)N(C)c1ccncc1` showed a pKa of 4.62. `c1ccc2c(c1)CNCCC[NH2+]Cc1ccccc1OCCCO2` gave a pKa of 7.89. `C=C(C)C(N)O` (configuration not stated) gave a pKa of 8. With `CC[C@H]1CN2CCc3cc(OC)c(OC)cc3[C@@H]2C[C@@H]1CC=O` the pKa was 8.11. `COc1cccc(OC)c1-c1nc2ncccc2[nH]1` showed a pKa of 4.85. With `C#CCCN(C)C` the pKa was 8.33. Compound `CC(=O)Nc1c(C)n(C)n(-c2ccccc2)c1=O` has a pKa of 0.18. In the case of `Cc1[nH]nc(O)c1C(C)C`, the pKa is reported as 3. With `CNC(C)(C)C(=O)[O-]` the pKa was 10.8. Work on `OCCNc1nc(NCCO)nc(NCCO)n1` yielded a pKa of 5.19. With `Cc1ccc([C@@H](OCCN(C)C)c2ccccc2)cc1` the pKa was 8.5. For `CC(C)CN(CC(C)O)CC(C)O` (configuration not stated), the pKa was 8.8. For `CCCN(CC(C)O)CC(C)O` (configuration not stated), the pKa was 8.9. Compound `CCCNc1ccccc1` has a pKa of 5.12. In the case of `CCCCC[C@H](C)N`, the pKa is reported as 10.8. `CC(C)n1c(N)nc2ccc(/C(=C\C(N)=O)c3cccc(F)c3F)cc21` showed a pKa of 6.7. Compound `CN(C)C[C@H]1[C@@H]2CC[C@@](C)([C@H]1N)C2(C)C` has a pKa of 9.84. Work on `CCCN(CCC)CCC` yielded a pKa of 10.5. Compound `C[C@H](N)[C@H](O)c1ccc(O)cc1` has a pKa of 8.69. Work on `COc1cccc(C2NCCS2)c1` (configuration not stated) yielded a pKa of 5.12. Compound `[S-]c1ncccn1` has a pKa of 7.2. `[NH3+]CCc1cccnc1` gave a pKa of 4.64. With `Nc1ccccn1` the pKa was 6.95. With `Nc1ccc2cc3ccc(Cl)cc3nc2c1` the pKa was 7.26. In the case of `C1CCN(CC[NH+]2CCCC2)C1`, the pKa is reported as 6.3. For `COc1nccc(C)n1`, the pKa was 2.1. Work on `O=[N+]([O-])c1ccc(C2NCCS2)cc1` (configuration not stated) yielded a pKa of 4.55. `[S-]c1cnc2ccccc2[nH+]1` showed a pKa of -1.11. In the case of `CN(C)CCN(C)CCN(C)C`, the pKa is reported as 9.55 and 9.4. Compound `CCCCCCCCCCCCCCN` has a pKa of 10.6. Compound `CCN(CC)c1ccccc1C` has a pKa of 7.18. Compound `Cc1cnc2c(O)cccc2c1C` has a pKa of 5.8. With `COc1ccc(F)cc1C(=O)N[C@@H]1C[C@H]2CC[C@@H](C1)N2Cc1ccccc1` the pKa was 8.82. In the case of `C1CCC2CNCCC2C1` (configuration not stated), the pKa is reported as 10.9. Work on `CN(C)c1ccccc1C(=O)[O-]` yielded a pKa of 8.46. Work on `CC(CN)C(=O)[O-]` (configuration not stated) yielded a pKa of 9.91. For `Nc1ccccc1B(O)O`, the pKa was 4.58. Work on `Cc1cc(NN)nc2ccccc12` yielded a pKa of 8.35. `Clc1ccc(C/C(=C\CN2CCCC2)c2ccccc2)cc1` gave a pKa of 8.77. For `Cn1cnc2nc(N)nc([O-])c21`, the pKa was 8.43. Work on `Oc1cc2cccnc2c2cccnc12` yielded a pKa of 3.9. Compound `Cc1nn(C)c2c1C(c1ccccc1F)=NCC(=O)N2C` has a pKa of 4.69. Compound `COc1nc2ccccc2[nH]1` has a pKa of 3.75. For `Cc1nnc(N)nc1C`, the pKa was 3.71. `CN` showed a pKa of 10.8. `C(CN1CCOCC1)CN1CCOCC1` showed a pKa of 7.25. `Cc1nc2ccccc2nc1[O-]` showed a pKa of 9.88. `CC1CCCNC1` (configuration not stated) gave a pKa of 10.9. Work on `COc1ccc2c3c1O[C@H]1CCC[C@H]4[C@H](NCC[C@]314)[C@H]2O` yielded a pKa of 8.72. In the case of `C=C(C)C(=O)OCCN`, the pKa is reported as 8.7. `Nc1cccc2c1ccc1ncccc12` showed a pKa of 5.2. `C[C@@H]1[C@@H]2Cc3ccc(O)cc3[C@@]1(C)CCN2CCF` gave a pKa of 8.35. `CCN(CC)C(C)C=C(c1cccs1)c1cccs1` (configuration not stated) showed a pKa of 8.9. Work on `Nc1ccc(-c2ncc(-c3ccccc3)o2)cc1` yielded a pKa of 3.01. Compound `CCCCCCN` has a pKa of 10.7. Compound `COc1c(O)cccc1CN` has a pKa of 8.89. `CN(C)Cc1cc(C[NH+](C)C)cc(O)c1O` showed a pKa of 7.22. `COc1cccc(CN(C)C)c1O` showed a pKa of 8.42. Compound `Cc1cc(Br)cc(C)c1N(C)C` has a pKa of 4.36. In the case of `NCCc1ccc(O)c(O)c1`, the pKa is reported as 8.89. `COc1ccc(OC)c(N)c1` showed a pKa of 3.72. `CC(=O)NN=C1CCN(C)CC1` gave a pKa of 7.45. Work on `COc1ccc(-c2ncc(-c3ccc(C)cc3)o2)cc1` yielded a pKa of 1.34. Compound `CC(C)(N)CO` has a pKa of 9.74.

From the pKa sets of Baltruschat and Czodrowski (2020)
